Measurements: patent US20090053245A1, “Pharmacokinetics and Efficacy of Anti-Angiogenic Drugs and Drugs Treating Diseases of the Blood” (priority 2007, published 2009)
Each block holds one compound with its values, some of them ahead of it.

Assays:
[1] = non-transplant patients; cited from earlier work
[2] = in vivo; cited from earlier work
[3] = molecular target: T1, CYP3a4 (Homo sapiens, UniProt P08684); assay: Fluorescence-based CYP3a4 assay (Invitrogen VIVID) with or without FKBP; type: in vitro ADME
T1 construct: purchased Invitrogen (Carlsbad, Calif.) P2856
T1 sequence (P08684 2-503 limits assumed): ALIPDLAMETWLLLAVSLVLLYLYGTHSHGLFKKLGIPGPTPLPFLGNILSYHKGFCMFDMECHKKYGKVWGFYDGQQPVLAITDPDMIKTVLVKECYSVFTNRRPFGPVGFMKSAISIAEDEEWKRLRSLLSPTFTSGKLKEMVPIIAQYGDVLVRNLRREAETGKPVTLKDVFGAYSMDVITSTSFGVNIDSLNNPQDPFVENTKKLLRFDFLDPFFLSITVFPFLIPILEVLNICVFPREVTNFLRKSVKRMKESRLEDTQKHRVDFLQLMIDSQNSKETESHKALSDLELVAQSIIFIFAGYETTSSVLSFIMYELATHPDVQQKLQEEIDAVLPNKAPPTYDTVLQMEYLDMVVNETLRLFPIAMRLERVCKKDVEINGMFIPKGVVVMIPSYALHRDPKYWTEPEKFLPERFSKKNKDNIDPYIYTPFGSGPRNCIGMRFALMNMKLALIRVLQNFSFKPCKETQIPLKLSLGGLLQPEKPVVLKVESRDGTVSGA

[4] = molecular target: T2, vitamin K epoxide reductase (Mus musculus, UniProt Q9CRC0); assay: Time course of anticoagulant effect (Helena Thromboplastic Reagent MI clotting test); type: in vivo; conditions: mice, 1.5 mg/kg by gavage in 0.5% methylcellulose
T2 construct: clotting time doubles after only about 8 hours for warfarin-SLF dosed mice; from tissue; host or cells: live mice dosed by gavage; clotting time measured on their blood
T2 sequence (Q9CRC0 1-161): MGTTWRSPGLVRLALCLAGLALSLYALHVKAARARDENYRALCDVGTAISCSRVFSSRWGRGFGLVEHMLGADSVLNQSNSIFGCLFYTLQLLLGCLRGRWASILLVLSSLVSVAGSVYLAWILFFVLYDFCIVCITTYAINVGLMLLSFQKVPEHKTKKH
Protocol: Five mice per arm (fifteen animals total) were used for the test. […] The dose was 1.5 mg/kg, administered in 0.5% methylcellulose by gavage. The Helena Thromboplastic Reagent MI test (Helena Laboratories, Beaumont, Tex.) was employed to determine the duration of clotting.

SMILES: C=CC[C@@H]1/C=C(\C)C[C@H](C)C[C@H](OC)[C@H]2O[C@@](O)(C(=O)C(=O)N3CCCC[C@H]3C(=O)O[C@H](/C(C)=C/[C@@H]3CC[C@@H](O)[C@H](OC)C3)[C@H](C)[C@@H](O)CC1=O)[C@H](C)C[C@@H]2OC [FK506]
half-life [1]: 21 h
distribution in the blood [2]: 72-98%

protection from degradation by CYP3a4 ([3]; in the presence of human FKBP (recombinant bacterially-expressed protein)): unable to protect
substrate for the enzyme CYP3a4 ([3]; no FKBP added): good substrates
SMILES: COc1cc(/C=C/C(=O)CC(=O)/C=C/c2ccc(O)c(OC)c2)ccc1O [curcumin]

time after which clotting time doubles [4]: 18 h
SMILES: CC(=O)CC(c1ccccc1)c1c(O)c2ccccc2oc1=O (centres unmarked) [warfarin]
